“And” between values parts separate entries of the source, which are not always exact repeats. Equal entries are not always repeated.
Key:
MDA-MB-468 cells = assay: Growth inhibition assay (Alamar blue); type: cell-based; settings: Homo sapiens
Experimental: We evaluated the antiproliferative effects of inhibitors using the dye Alamar blue. This reagent offers a rapid objective measure of cell viability in cell culture, and it uses the indicator dye resazurin to measure the metabolic capacity of cells, an indicator of cell viability. Briefly, MDA-MB-468 cells were plated on Costar 96-well plates at 1500 cells/well. Cells were allowed to incubate for 24 h at 37° C. before drug treatment. Drugs were added in triplicate at the indicated concentrations, and the plate was incubated for 72 h. Alamar Blue (440 μM) was added, and the plate read 6 h later using Softmax Pro 6 software (Fluorescence intensity mode, excitation 530 nm, emission 580 nm, with 560 nm dichroic mirror). Results were analyzed using GraphPad Prism 5. The percentage cell growth inhibition was calculated by comparing fluorescence readings obtained from treated versus control cells, accounting for initial cell population (time zero).

Hsp90α = Hsp90α (Homo sapiens, UniProt P07900); assay: biochemical; settings: FP competition, 6 nM Cy3B-GM, 10 nM protein, 4° C. for 24 h
Grp94 = Grp94 (Canis lupus familiaris, UniProt P41148); settings: read-out: Grp94; FP competition, 6 nM Cy3B-GM, 10 nM protein, 4° C. for 24 h
Trap-1 = molecular target: T1, Trap-1 (Homo sapiens, UniProt Q12931); assay: biochemical
T1 sequence (Q12931 60-704): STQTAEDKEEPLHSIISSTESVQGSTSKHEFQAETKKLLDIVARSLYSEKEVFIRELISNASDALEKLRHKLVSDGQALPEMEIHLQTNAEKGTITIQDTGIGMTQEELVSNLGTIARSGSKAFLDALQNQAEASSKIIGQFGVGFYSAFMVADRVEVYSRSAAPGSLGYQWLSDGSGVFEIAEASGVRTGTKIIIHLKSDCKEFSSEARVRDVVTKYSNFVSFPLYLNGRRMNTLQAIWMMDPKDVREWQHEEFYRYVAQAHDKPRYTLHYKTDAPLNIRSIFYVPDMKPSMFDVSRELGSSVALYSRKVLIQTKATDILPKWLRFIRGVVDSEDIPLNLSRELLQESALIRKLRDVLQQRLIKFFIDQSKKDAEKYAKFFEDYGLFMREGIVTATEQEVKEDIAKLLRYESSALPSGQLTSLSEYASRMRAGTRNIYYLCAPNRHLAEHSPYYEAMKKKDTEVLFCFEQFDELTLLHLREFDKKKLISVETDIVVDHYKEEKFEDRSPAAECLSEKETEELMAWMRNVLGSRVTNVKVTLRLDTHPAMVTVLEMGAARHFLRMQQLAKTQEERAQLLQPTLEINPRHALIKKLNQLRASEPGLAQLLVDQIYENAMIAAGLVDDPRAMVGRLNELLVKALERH

Hsp90β = Hsp90β (Homo sapiens, UniProt P08238)
Chain of Hsp90β (P08238 whole entry): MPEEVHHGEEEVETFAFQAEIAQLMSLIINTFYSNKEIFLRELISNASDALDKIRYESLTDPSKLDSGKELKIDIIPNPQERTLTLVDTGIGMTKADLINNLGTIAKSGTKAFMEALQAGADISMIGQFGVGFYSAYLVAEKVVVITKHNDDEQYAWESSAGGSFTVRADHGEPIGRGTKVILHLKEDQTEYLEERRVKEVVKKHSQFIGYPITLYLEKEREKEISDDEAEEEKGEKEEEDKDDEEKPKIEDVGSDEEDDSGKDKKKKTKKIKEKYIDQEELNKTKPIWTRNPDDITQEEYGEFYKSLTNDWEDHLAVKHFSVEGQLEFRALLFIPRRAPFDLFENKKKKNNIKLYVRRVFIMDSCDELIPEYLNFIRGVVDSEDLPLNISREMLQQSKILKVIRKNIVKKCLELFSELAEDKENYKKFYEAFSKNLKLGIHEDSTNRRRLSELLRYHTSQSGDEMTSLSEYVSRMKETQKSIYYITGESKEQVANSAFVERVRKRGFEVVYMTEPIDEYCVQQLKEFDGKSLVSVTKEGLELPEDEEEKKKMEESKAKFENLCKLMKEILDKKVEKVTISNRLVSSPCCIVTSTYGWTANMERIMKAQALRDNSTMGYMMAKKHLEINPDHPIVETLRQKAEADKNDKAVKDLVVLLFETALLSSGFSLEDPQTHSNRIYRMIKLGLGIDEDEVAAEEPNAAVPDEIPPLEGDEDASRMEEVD

Chain of Grp94 (P41148 with tags, fused parts or gaps DELINS287-327GGGG): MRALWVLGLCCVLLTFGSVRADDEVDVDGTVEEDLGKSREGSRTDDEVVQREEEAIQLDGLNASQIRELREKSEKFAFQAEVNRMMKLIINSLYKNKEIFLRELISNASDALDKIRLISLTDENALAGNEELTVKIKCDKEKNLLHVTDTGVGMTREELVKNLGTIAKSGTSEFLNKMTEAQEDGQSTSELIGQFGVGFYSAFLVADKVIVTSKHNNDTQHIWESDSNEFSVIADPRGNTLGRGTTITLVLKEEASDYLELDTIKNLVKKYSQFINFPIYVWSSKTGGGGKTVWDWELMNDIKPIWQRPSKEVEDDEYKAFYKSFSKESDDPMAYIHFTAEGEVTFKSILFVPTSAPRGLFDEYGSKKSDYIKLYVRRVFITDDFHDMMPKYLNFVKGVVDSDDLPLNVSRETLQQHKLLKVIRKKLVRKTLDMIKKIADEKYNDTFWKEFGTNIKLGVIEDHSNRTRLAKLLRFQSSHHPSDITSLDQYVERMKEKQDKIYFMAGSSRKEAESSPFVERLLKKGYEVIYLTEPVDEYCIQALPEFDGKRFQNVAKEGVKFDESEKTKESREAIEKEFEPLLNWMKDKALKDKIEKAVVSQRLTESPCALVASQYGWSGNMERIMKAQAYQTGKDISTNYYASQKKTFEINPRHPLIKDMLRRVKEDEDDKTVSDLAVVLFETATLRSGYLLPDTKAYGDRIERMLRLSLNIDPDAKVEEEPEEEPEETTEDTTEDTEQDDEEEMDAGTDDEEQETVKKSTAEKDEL

Structure (SMILES)	IC50 (MDA-MB-468 cells) [nM]	IC50 (Hsp90α)	IC50 (Grp94) [nM]	IC50 (Trap-1) [nM]	IC50 (Hsp90β) [nM]
CC(C)NCCCn1c(Sc2cc(Cl)cc(I)c2)nc2c(N)ncnc21 [HJP-V-149, 8-((3-chloro-5-iodophenyl)thio)-9-(3-(isopropylamino)propyl)-9H-purin-6-amine]	125	43200 nM	240	–	–
CC(C)CNCCCn1c(Sc2cc(Cl)cc(I)c2)nc2c(N)ncnc21 [HJP-VI-4, 8-((3-chloro-5-iodophenyl)thio)-9-(3-(isobutylamino)propyl)-9H-purin-6-amine]	212	41800 nM	290	–	–
CC(C)(C)CNCCCn1c(Sc2cc(Cl)cc(I)c2)nc2c(N)ncnc21 [HJP-VI-5, 8-((3-chloro-5-iodophenyl)thio)-9-(3-(neopentylamino)propyl)-9H-purin-6-amine]	562	> 25000 nM	490	–	–
CC(C)(C)NCCCn1c(Sc2cc(Cl)cc(I)c2)nc2c(N)ncnc21 [HJP-VI-6, 9-(3-(tert-butylamino)propyl)-8-((3-chloro-5-iodophenyl)thio)-9H-purin-6-amine]	314	27800 nM	540	–	–
C=C(C)c1cc(Cl)cc(Sc2nc3c(N)ncnc3n2CCCNC(C)C)c1 [HJP-VI-12, 8-((3-chloro-5-(prop-1-en-2-yl)phenyl)thio)-9-(3-(isopropylamino)propyl)-9H-purin-6-amine]	63	20000 nM	210	–	–
C#Cc1cc(Cl)cc(Sc2nc3c(N)ncnc3n2CCCNC(C)C)c1 [HJP-VI-18, 8-((3-chloro-5-ethynylphenyl)thio)-9-(3-(isopropylamino)propyl)-9H-purin-6-amine]	122	152000 nM	900	–	–
CC(C)NCCCn1c(Sc2cc(Cl)cc(-c3ccc[nH]3)c2)nc2c(N)ncnc21 [HJP-VI-28, 8-((3-chloro-5-(1H-pyrrol-2-yl)phenyl)thio)-9-(3-(isopropylamino)propyl)-9H-purin-6-amine]	286	–	220	–	–
CC(C)NCCCn1c(Sc2cc(Cl)cc(-c3ccn[nH]3)c2)nc2c(N)ncnc21 [HJP-VI-29, 8-((3-chloro-5-(1H-pyrazol-5-yl)phenyl)thio)-9-(3-(isopropylamino)propyl)-9H-purin-6-amine]	516	25900 nM	1200	–	–
C=Cc1cc(Cl)cc(Sc2nc3c(N)ncnc3n2CCCNC(C)C)c1 [HJP-VI-31, 8-((3-chloro-5-vinylphenyl)thio)-9-(3-(isopropylamino)propyl)-9H-purin-6-amine]	129	48900 nM	630	–	–
CC(C)NCCCn1c(Sc2ccc(Cl)cc2I)nc2c(N)ncnc21 [HJP-VI-36, 8-((4-chloro-2-iodophenyl)thio)-9-(3-(isopropylamino)propyl)-9H-purin-6-amine]	5850	3400 nM	210	–	–
CC(C)NCCCn1c(Sc2cc(Cl)cc(-c3ccoc3)c2)nc2c(N)ncnc21 [HJP-VI-39, 8-((3-chloro-5-(furan-3-yl)phenyl)thio)-9-(3-(isopropylamino)propyl)-9H-purin-6-amine]	166	21300 nM	280	–	–
CC(C)NCCCn1c(Sc2ccc(Cl)cc2-c2ccn[nH]2)nc2c(N)ncnc21 [HJP-VI-43, 8-((4-chloro-2-(1H-pyrazol-5-yl)phenyl)thio)-9-(3-(isopropylamino)propyl)-9H-purin-6-amine]	6580	1500 nM	450	–	–
CC(C)NCCCn1c(Sc2cc(Cl)cc(-c3cc[nH]c3)c2)nc2c(N)ncnc21 [HJP-VI-44, 8-((3-chloro-5-(1H-pyrrol-3-yl)phenyl)thio)-9-(3-(isopropylamino)propyl)-9H-purin-6-amine]	917	12300 nM	830	–	–
CC(C)NCCCn1c(Sc2cc(Cl)cc(-c3ncco3)c2)nc2c(N)ncnc21 [HJP-VI-49, 8-((3-chloro-5-(oxazol-2-yl)phenyl)thio)-9-(3-(isopropylamino)propyl)-9H-purin-6-amine]	3120	29600 nM	1300	–	–
C/C=C/c1cc(Cl)cc(Sc2nc3c(N)ncnc3n2CCCNC(C)C)c1 [HJP-VI-63, (E)-8-((3-chloro-5-(prop-1-en-1-yl)phenyl)thio)-9-(3-(isopropylamino)propyl)-9H-purin-6-amine]	226	> 50000 nM	340	–	–
C=C(c1cc(Cl)cc(Sc2nc3c(N)ncnc3n2CCCNC(C)C)c1)C(F)(F)F [HJP-VI-70, 8-((3-chloro-5-(3,3,3-trifluoroprop-1-en-2-yl)phenyl)thio)-9-(3-(isopropylamino)propyl)-9H-purin-6-amine]	2160	13800 nM	153	–	–
C/C=C\c1cc(Cl)cc(Sc2nc3c(N)ncnc3n2CCCNC(C)C)c1 [HJP-VI-78, (Z)-8-((3-chloro-5-(prop-1-en-1-yl)phenyl)thio)-9-(3-(isopropylamino)propyl)-9H-purin-6-amine]	580	18600 nM	214	–	–
CC(C)(C)CNCCCn1c(Sc2cc(Cl)cc(Cl)c2)nc2c(N)nc(F)nc21 [HJP-VI-85, 8-((3,5-dichlorophenyl)thio)-2-fluoro-9-(3-(neopentylamino)propyl)-9H-purin-6-amine]	164	> 50000 nM	186	–	–
CC(C)(C)NCCCn1c(Sc2cc(Cl)cc(Cl)c2)nc2c(N)nc(F)nc21 [HJP-VI-86, 9-(3-(tert-butylamino)propyl)-8-((3,5-dichlorophenyl)thio)-2-fluoro-9H-purin-6-amine]	53	20900 nM	156	–	–
C#CCCCn1c(Sc2ccc(Cl)c(Cl)c2)nc2c(N)ncnc21 [PDP-I-25-N9]	–	4820 ± 1050 nM	420 ± 40	2350 ± 90	10200 ± 1620
C#CCCCn1c(Sc2ccc(Br)cc2CC)nc2c(N)ncnc21 [PDP-I-54-N9]	–	13900 nM and 14000 nM	660 ± 100	4900 ± 270	> 50000
C#CCCCn1c(Sc2cc(Br)cc(Br)c2)nc2c(N)ncnc21 [PDP-I-59-N9]	–	> 100000 nM	260 ± 70	> 100000	> 100000
C#CCCCn1c(Sc2ccc(Br)cn2)nc2c(N)ncnc21 [PDP-I-60-N9]	–	2180 ± 100 nM	530 ± 30	2180 ± 550	2820
C#CCCCn1c(Sc2cc(Cl)cc3c(Cl)ccnc23)nc2c(N)ncnc21 [PDP-I-79-N9]	–	> 100000 nM	2780 ± 210	> 100000	> 100000
COc1cc(Cc2nc3c(N)ncnc3n2C(C)C)cc(OC)c1OC [PU-27]	–	> 500000 nM	59300 ± 2690	> 300000	> 250000
CCC[C@H](C)n1c(Cc2cc(OC)c(OC)c(OC)c2)nc2c(N)ncnc21 [PU-34]	–	> 500000 nM	91300 ± 2160	227000 ± 6600	> 250000
C#CCCCn1cnc(N)c2nc(Sc3ccc(OC)cc3OC)nc1-2 [PU-H44]	–	> 100000 nM	46800	> 100000	> 100000
C[C@H](NCCCn1c(Sc2cc(Cl)cc(Cl)c2)nc2c(N)ncnc21)C1CC1 [SO-III-127B, (S)-9-(3-((1-cyclopropylethyl)amino)propyl)-8-((3,5-dichlorophenyl)thio)-9H-purin-6-amine]	830	40400 nM	345	–	–
